Experimental data as given in article PMC11433937, “Privileged Scaffold Hybridization in the Design of Carbonic Anhydrase Inhibitors” (Molecules, 2024).
pKi: −log10 of the molar value.

Experiments:
hCA IX [1] = target: T1, hCA IX (Homo sapiens, UniProt Q16790); test: Stopped-flow CA-catalyzed CO2 hydration inhibition assay
Experimental: (§1) A stopped-flow instrument was used, according to the previously reported methodology, to measure the CA (carbonic anhydrase)-catalyzed CO2 hydration/inhibition [46]. For 10 to 100 s, the CA-catalyzed CO2 hydration reaction’s initial rates were observed. […] Stock solutions of inhibitors (10 mM) and dilutions up to 0.01 nM were prepared in distilled-deionized water. Before the experiment started, the inhibitor and enzyme solutions were preincubated for 15 min at room temperature to allow for the formation of the enzyme/inhibitor (E/I) complex.

hCA XII [2] = target: T2, hCA XII (Homo sapiens, UniProt O43570); test: as above
Experimental: as §1

hCA I = hCA I (Homo sapiens, UniProt P00915); test: as above
Experimental: as §1

hCA II = hCA II (Homo sapiens, UniProt P00918); test: Stopped-flow CA-catalyzed CO2 hydration inhibition assay
Experimental: as §1

hCA IX [3] = target: T1, hCA IX; design: method as in PMID 27775452; details: previously synthesized compound; cited from earlier work
hCA XII [4] = target: T2, hCA XII; design: method as in PMID 27775452; details: previously synthesized compound; cited from earlier work

Chain of hCA I (P00915 whole entry): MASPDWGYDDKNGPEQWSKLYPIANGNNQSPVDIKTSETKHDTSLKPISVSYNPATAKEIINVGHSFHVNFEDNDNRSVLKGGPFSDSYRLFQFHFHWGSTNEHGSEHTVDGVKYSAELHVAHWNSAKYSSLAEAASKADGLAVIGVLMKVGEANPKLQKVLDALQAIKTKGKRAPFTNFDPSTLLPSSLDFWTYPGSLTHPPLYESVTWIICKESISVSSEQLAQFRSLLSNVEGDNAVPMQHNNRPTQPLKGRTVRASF
T2 sequence (O43570 30-289 limits assumed): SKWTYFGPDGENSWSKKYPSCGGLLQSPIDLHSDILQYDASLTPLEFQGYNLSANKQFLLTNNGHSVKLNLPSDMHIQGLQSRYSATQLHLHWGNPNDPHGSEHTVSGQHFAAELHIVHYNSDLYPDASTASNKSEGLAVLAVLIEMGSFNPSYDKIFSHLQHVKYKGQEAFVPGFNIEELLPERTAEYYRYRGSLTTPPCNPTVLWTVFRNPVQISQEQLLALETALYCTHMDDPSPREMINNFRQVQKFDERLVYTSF

SMILES	pKi (hCA IX [1])	pKi (hCA XII [2])	pKi (hCA I)	melting point [°C]	pKi (hCA II)	selectivity index SI hCA II/hCA IX (hCA IX [1]; ratio of Ki hCA II to Ki hCA IX)	selectivity index SI hCA II/hCA XII (hCA XII [2]; ratio of Ki hCA II to Ki hCA XII)	inhibitory activity against hCA IX (hCA IX [3])	inhibitory activity against hCA XII (hCA XII [4])
NS(=O)(=O)c1ccc(NN2C(=O)/C(=C3/C(=O)Nc4ccc(Cl)cc43)SC2=Nc2ccccc2)cc1 [5a, 4-((5-((Z)-5-chloro-2-oxoindolin-3-ylidene)-4-oxo-2-(phenylimino)thiazolidin-3-yl)amino)benzenesulfonamide]	7.00	7.21	5.34	314.2 to 316.1	6.61				
NS(=O)(=O)c1ccc(NN2C(=O)/C(=C3/C(=O)Nc4ccc([N+](=O)[O-])cc43)SC2=Nc2ccccc2)cc1 [5b, 4-((5-((Z)-5-nitro-2-oxoindolin-3-ylidene)-4-oxo-2-(phenylimino)thiazolidin-3-yl)amino)benzenesulfonamide]	7.46	8.12	5.22	338.5 to 340	6.80				
NS(=O)(=O)c1ccc(NN2C(=O)/C(=C3/C(=O)Nc4ccc(F)cc43)SC2=Nc2ccccc2)cc1 [5c, 4-((5-((Z)-5-fluoro-2-oxoindolin-3-ylidene)-4-oxo-2-(phenylimino)thiazolidin-3-yl)amino)benzenesulfonamide]	7.64	7.66	5.23	297.5 to 299.8	8.16				
NS(=O)(=O)c1ccc(NN2C(=O)/C(=C3/C(=O)Nc4ccc(Br)cc43)SC2=Nc2ccccc2)cc1 [5d, 4-((5-((Z)-5-bromo-2-oxoindolin-3-ylidene)-4-oxo-2-(phenylimino)thiazolidin-3-yl)amino)benzenesulfonamide]	7.06	6.71	< 5.00	331.4 to 332.7	6.98				
COc1ccc2c(c1)/C(=C1/SC(=Nc3ccccc3)N(Nc3ccc(S(N)(=O)=O)cc3)C1=O)C(=O)N2 [5e, 4-((5-((Z)-5-methoxy-2-oxoindolin-3-ylidene)-4-oxo-2-(phenylimino)thiazolidin-3-yl)amino)benzenesulfonamide]	8.30	7.27	5.04	328.8 to 330.1	8.02				
Cc1ccc2c(c1)/C(=C1/SC(=Nc3ccccc3)N(Nc3ccc(S(N)(=O)=O)cc3)C1=O)C(=O)N2 [5f, 4-((5-((Z)-5-methyl-2-oxoindolin-3-ylidene)-4-oxo-2-(phenylimino)thiazolidin-3-yl)amino)benzenesulfonamide]	7.83	9.22	< 5.00	333.9 to 334.6	7.15	4.75	118		
NS(=O)(=O)c1ccc(NN2C(=O)/C(=C3/C(=O)Nc4ccccc43)SC2=Nc2ccccc2)cc1 [5g, 4-((4-oxo-5-((Z)-2-oxoindolin-3-ylidene)-2-(phenylimino)thiazolidin-3-yl)amino)benzenesulfonamide]	8.60	7.77	5.28		8.02				
NS(=O)(=O)c1ccc(NN2C(=O)/C(=C3/C(=O)Nc4c(F)cccc43)SC2=Nc2ccccc2)cc1 [5h, 4-((5-((Z)-7-fluoro-2-oxoindolin-3-ylidene)-4-oxo-2-(phenylimino)thiazolidin-3-yl)amino)benzenesulfonamide]	7.90	8.89	5.18	336.1 to 336.6	8.39				
NS(=O)(=O)c1ccc(NN2C(=O)/C(=C3/C(=O)Nc4c(Br)cccc43)SC2=Nc2ccccc2)cc1 [5i, 4-((5-((Z)-7-bromo-2-oxoindolin-3-ylidene)-4-oxo-2-(phenylimino)thiazolidin-3-yl)amino)benzenesulfonamide]	7.30	7.03	5.11	344.9 to 346	7.75				
CN1C(=O)/C(=C2/C(=O)Nc3c(F)cccc32)S/C1=N\c1ccc(S(N)(=O)=O)cc1 [EMAC10020m]								in the nanomolar range	in the nanomolar range
